Patent publication US20080008768A1, “Compositions and Methods for Inhibiting Sonic Hedgehog Activity” (priority 2004, published 2008)
Values joined by “and” are separate entries in the source; they are usually repeats but may differ in a detail not shown here. Equal entries are not always repeated. Where two headings read alike, the source gives them in different places. Marks after values point to notes of the source that are not given here.

Tests used:
[1] = tested on: Shh-dependent pancreatic cancer cell line L3.6pl; format: cell-based; settings: for Cell Growth (normalized): normalized to cell growth in carrier
[2] = tested on: mouse embryo zone of polarizing activity (ZPA); settings: Bell, et al. (1999); cited from earlier work
[3] = tested on: Gli3; assay: Quantitative RT-PCR of forelimb buds, Gli3; format: in vivo, mouse; settings: limb buds of day 10.5 embryos, normalized to tubulin
Experimental: (§1) Real Time Reverse Transcribed-Polymerase Chain Reaction (RT-PCR). Precise levels of message expression of Shh, Ptch1, and Gli3 were performed by RT-PCR. […] Right and left forelimb buds from a single litter (n=3) were pooled separately and equal amounts of total RNA were reverse-transcribed using […]™ II (INVITROGEN™, Carlsbad, Calif.) in the presence of oligo-dT or random primers. For quantitative PCR, aliquots of the reverse transcription reaction were amplified in the presence of SYBR® Green (Quantitect SYBR® green PCR kit; QIAGEN®, Valencia, Calif.) and gene specific primers for Shh, Ptch1, Gli3 and aTub. […] The PCR amplifications and monitoring of product generation per cycle were performed using a DNA Engine OPTICON® 2 Continuous Fluorescence Detector and evaluated using its software. Gene expression levels were determined by gene-specific standard curves in the linear amplification phase. All values were normalized to tubulin within the same sample.

[4] = tested on: Shh; assay: Quantitative RT-PCR of forelimb buds, Shh; format: in vivo, mouse; settings: limb buds of day 10.5 embryos, normalized to tubulin
Experimental: as §1

[5] = tested on: Gli3; assay: Whole mount in situ hybridization, Gli3; format: in vivo, mouse; settings: right forelimb, 24 hours after treatment
Experimental: (§2) Whole Mount In Situ Hybridization. Assays were performed in accordance with standard methods (Wilkinson and Nieto (1993) Meth. Enzymol. 225:361-373). Embryos from control and cadmium-exposed pregnancies were processed together in the same vessel, examined and photographed using an OLYMPUS® SZX9 stereomicroscope. Digoxigenin-labeled riboprobes were transcribed from linearized DNA templates.
(§3) The expression pattern of four genes (i.e., Shh, Ptch1, Gli3, and Fgf8) in the right forelimb of control and cadmium-exposed embryos was examined by whole mount in situ hybridization 24 hours after treatment. The expression of Shh was restricted to the posterior mesenchymal cells of the developing murine limb bud.

[6] = tested on: Shh signaling; assay: Shh signaling activity of forelimb bud lysate in Shh-Light 2 cells (Gli-luciferase reporter); format: cell-based, mouse; settings: lysate of E10.5 right forelimb bud cells, 24 h after 4 mg/kg to dam
Experimental: Shh Signaling Activity. Pregnant C57BL/6 mice were treated with CdSo4, 4 mg/kg, or PBS, 10 mL/kg, at 9:00 pm on day 9 of gestation. Twenty-four hours post-treatment the dams were sacrificed. The implantation sites were removed and frozen in liquid nitrogen. Samples were stored at −80° C. until use in the Shh activity assay.
To create a sample of cell lysate, a litter of implantation sites was thawed and the embryos dissected free of their surrounding membranes. Somites were counted and the embryo limb staged according to standard practices (Wanek, et al. (1989) J. Exp. Zool. 249:41-49). […] Samples were sonicated and DNA measured using the HOEFER™ DYNA QUANT™ 200 Fluorimeter. After DNA quantification, fetal bovine serum was added so that the final concentration of serum was 0.5%.
Assay of SHH signaling activity was conducted in Shh-Light 2 cells, an NIH-3T3-derived stable cell line containing an integrated Gli-luciferase and constitutive Renilla luciferase reporters. […] Using the DUAL-LUCIFERASE® Reporter Assay System (PROMEGA®, Madison, Wis.), luciferase activity was measured and normalized to a Renilla control.
A more direct and specific assay of Shh signaling is provided in Shh-Light 2 cells. […] Culture of these cells with a medium or cellular homogenate containing Shh activates reporter expression and that activity can be quantitated luminometrically.

[7] = tested on: Fgf8; assay: Whole mount in situ hybridization, Fgf8; format: in vivo, mouse; settings: day 10.5, 24 hours after administration
Experimental: as §2, §3

[8] = tested on: mouse embryo zone of polarizing activity (ZPA); assay: Polarizing activity of mouse embryo ZPA grafted to chick wing bud; format: in vivo
Experimental: Polarizing Activity. Fertilized White Leghorn eggs (SPAFAS) were incubated at 38° C. On the second day, 1 to 2 mL of albumin were removed so that the eggs could be windowed the next day without damaging the embryo. After windowing, 3 drops of penicillin/streptomycin (50 units/mL) were added and the window closed with SCOTCH™ tape. On the fourth day of incubation a piece of day 10.5 mouse embryo right forelimb was excised from the posterior aspect (i.e., ZPA) of cadmium sulfate- or PBS-exposed embryos and grafted between the ectoderm and mesenchyme at the anterior margin of a stage 19/20 (Hamburger and Hamilton (1951) J. Morphol. 88:49-92) chick right wing bud. After grafting, 3 drops of penicillin/streptomycin were added, the window closed with tape and the egg replaced in the incubator for 7 additional days. At this time the chick embryo was sacrificed and the right wing bud processed for skeletal examination (Kuczuk and Scott (1984) supra). After staining, the digit pattern was determined and the index of polarizing activity was assessed according to standard methods (Honig, et al. (1981) J. Embryol. Exp. Morph. 62:203-216),

[9] = tested on: Ptch1; assay: Quantitative RT-PCR of forelimb buds, Ptch1; format: in vivo, mouse; settings: limb buds of day 10.5 embryos, normalized to tubulin
Experimental: as §1

[10] = tested on: Ptch1; assay: Whole mount in situ hybridization, Ptch1; format: in vivo, mouse; settings: right forelimb, 24 hours after treatment
Experimental: as §2, §3

[11] = tested on: Shh; assay: Whole mount in situ hybridization, Shh; format: in vivo, mouse; settings: right forelimb, 24 hours after treatment
Experimental: as §2, §3

[12] = tested on: C57BL/6CrIBR mice; assay: Cadmium-induced forelimb ectrodactyly in fetuses of treated pregnant mice; format: in vivo, mouse
Experimental: Cadmium-induced Forelimb Ectrodactyly. C57BL/6CrIBR mice were purchased from Charles River Laboratories (Wilmington, Mass.). Individual males were placed in female cages for the last 2-3 hours of the 12 hour dark cycle (10:00 pm to 10:00 am). The presence of a vaginal plug indicated a successful mating and 9:00 am was considered time zero of pregnancy. On day 7 of gestation, plugged females were lightly anesthetized with Isofluorane and checked for pregnancy by abdominal palpation. The pregnant females were administered CdSO4 (SIGMA, St. Louis, Mo.), 4 mg/kg in phosphate-buffered saline (PBS), intraperitoneally, at 9:00 pm on day 9. These pregnant females were then allowed free access to food and water until day 18 when they were sacrificed by Isofluorane overdose. The fetuses were removed from the uterus and prepared for skeletal analysis by double-staining of cartilage and bone (Kuczuk and Scott (1984) supra).
CdSo4, 4 mg/kg, was administered intraperitoneally on day 9 of gestation.

[13] = 4 mg/kg i.p. day 9 of gestation, 8 dams, 68 implantation sites
[14] = 4 mg/kg i.p. day 9 of gestation, fetuses examined day 18

CC(=O)Nc1nnc(S(N)(=O)=O)s1 [Acetazolamide, reference compound]
Cell Growth (normalized) ([1]; inhibitor 10 μM): 1.0312
Cell Growth (normalized) ([1]; inhibitor 100 μM): 1.0370
Cell Growth (normalized) ([1]; inhibitor 1000 μM): 1.0130
Signaling by Shh protein measured by polarizing activity of ZPA (in words) [2]: almost totally abolished

Cadmium Sulfate
Gli3 mRNA level (in words) [3]: A reduction of mRNA levels was not observed
Inhibition of proliferation (in words) ([1]; comparison of inhibitors): more effectively than cyclopamine and acetazolamide
Cell Growth (normalized) ([1]; inhibitor 1 μM): 1.0341
Cell Growth (normalized) ([1]; inhibitor 10 μM): 0.9007
Cell Growth (normalized) ([1]; inhibitor 30 μM): 0.7200
Cell Growth (normalized) ([1]; inhibitor 100 μM): 0.0041
Cell Growth (normalized) ([1]; inhibitor 1000 μM): 0.0029
Shh mRNA level (in words) [4]: A reduction of mRNA levels was not observed
Gli3 expression (in words) [5]: did not alter Gli3 expression
Shh signaling level compared to lysate from control embryo right forelimb buds [6]: 25%
Fgf8 staining (in words) [7]: slight truncation of Fgf8 staining posteriorly
Capability of ZPA to induce limb reduplication (in words) ([8]; day 10.5 mouse embryo ZPA after exposure): severely inhibited
Induced Digit Pattern ([8]; individual grafts of day 10.5 ZPA from exposed embryos, x = unidentifiable partial duplicated digit, listed as CdSo4): 22234 and 234 (4×)
Ptch1 mRNA level (in words) [9]: A reduction of mRNA levels was not observed
Ptch1 expression pattern (in words) [10]: unchanged
Shh expression location or intensity (in words) [11]: No discernable difference
Fetuses with right forelimb affected by postaxial ectrodactyly ([12]; 4 mg/kg i.p. day 9): 78%
Number of fetuses with ectrodactyly, Bilateral R < L ([12]; 4 mg/kg i.p. day 9): 3
Number of fetuses with ectrodactyly, Bilateral R = L ([12]; 4 mg/kg i.p. day 9): 21
Number of fetuses with ectrodactyly, Bilateral R > L ([12]; 4 mg/kg i.p. day 9): 5
Number of fetuses with ectrodactyly, LFL Only ([12]; 4 mg/kg i.p. day 9, left forelimb only): 4
Number of fetuses with ectrodactyly, RFL Only ([12]; 4 mg/kg i.p. day 9, right forelimb only): 12*
No. Resorptions [12, 13]: 15
Resorptions (%) [12, 13]: 22%
Fetuses with Postaxial Forelimb Ectrodactyly (%) [12, 14]: 85%
No. Fetuses with Postaxial Forelimb Ectrodactyly [12, 14]: 45
